According to US11261211B2, “19-NOR neuroactive steroids and methods of use thereof” (Sage Therapeutics, Inc., priority 2013, dated 2022):

Legend:
[1] = molecular target: rat brain cortical membranes ([35S]-TBPS binding, GABA receptor complex); assay: Steroid inhibition of [35S]-TBPS binding; details: 3 nM [35S]-TBPS, in the presence of 5 μM GABA
Method: TBPS binding assays using rat brain cortical membranes in the presence of 5 μM GABA has been described (Gee et al, J. Pharmacol. Exp. Ther. 1987, 241, 346-353; Hawkinson et al, Mol. Pharmacol. 1994, 46, 977-985; Lewin, A. H et al., Mol. Pharmacol. 1989, 35, 189-194).
Briefly, cortices are rapidly removed following decapitation of carbon dioxide-anesthetized Sprague-Dawley rats (200-250 g). The cortices are homogenized in 10 volumes of ice-cold 0.32 M sucrose using a glass/teflon homogenizer and centrifuged at 1500×g for 10 min at 4° C. The resultant supernatants are centrifuged at 10,000×g for 20 min at 4° C. to obtain the P2 pellets. The P2 pellets are resuspended in 200 mM NaCl/50 mM Na-K phosphate pH 7.4 buffer and centrifuged at 10,000×g for 10 min at 4° C. This washing procedure is repeated twice and the pellets are resuspended in 10 volumes of buffer. Aliquots (100 μL) of the membrane suspensions are incubated with 3 nM [^35S]-TBPS and 5 μL aliquots of test drug dissolved in dimethyl sulfoxide (DMSO) (final 0.5%) in the presence of 5 μM GABA. The incubation is brought to a final volume of 1.0 mL with buffer. […] Filter bound radioactivity is measured by liquid scintillation spectrometry. […]

α4β3δ GABAA receptor = α4β3δ GABAA receptor (Homo sapiens (Human), UniProt P28472+P48169); assay: Patch clamp electrophysiology of recombinant α4β3δ GABAA receptors in CHO cells; format: cell-based; details: 10 μM compound, manual patch, GABA EC20 2 μM, read-out: α4β3δ GABA Manual Patch in CHO (Efficacy at 10 μM)
Method: Cellular electrophysiology is used to measure the pharmacological properties of our GABAA receptor modulators in heterologous cell systems. Each compound is tested for its ability to affect GABA mediated currents at a submaximal agonist dose (GABA EC20=2 μM). LTK cells are stably transfected with the α1β2γ2 subunits of the GABA receptor and CHO cells are transiently transfected with the α4β3δ subunits via the Lipofecatamine method. Cells were passaged at a confluence of about 50-80% and then seeded onto 35 mm sterile culture dishes containing 2 ml culture complete medium without antibiotics or antimycotics. Confluent clusters of cells are electrically coupled (Pritchett et al., 1988). Because responses in distant cells are not adequately voltage clamped and because of uncertainties about the extent of coupling (Verdoorn et al., 1990), cells were cultivated at a density that enables the recording of single cells (without visible connections to other cells).
Whole cell currents were measured with HEKA EPC-10 amplifiers using PatchMaster software or by using the high throughput QPatch platform (Sophion). Bath solution for all experiments contained (in mM): NaCl 137 mM, KCl 4 mM, CaCl2 1.8 mM, MgCl2 1 mM, HEPES 10 mM, D-Glucose 10 mM, pH (NaOH) 7.4. In some cases 0.005% cremophor was also added. Intracellular (pipette) solution contained: KCl 130 mM, MgCl2 1 mM, Mg-ATP 5 mM, HEPES 10 mM, EGTA 5 mM, pH 7.2. During experiments, cells and solutions were maintained at room temperature (19° C.-30° C.). For manual patch clamp recordings, cell culture dishes were placed on the dish holder of the microscope and continuously perfused (1 ml/min) with bath solution. After formation of a Gigaohm seal between the patch electrodes and the cell (pipette resistance range: 2.5 MΩ-6.0 MΩ; seal resistance range: >1 GΩ) the cell membrane across the pipette tip was ruptured to assure electrical access to the cell interior (whole-cell patch-configuration). For experiments using the QPatch system, cells were transferred as suspension to the QPatch system in the bath solution and automated whole cell recordings were performed.
Cells were voltage clamped at a holding potential of −80 mV. For the analysis of test articles, GABA receptors were stimulated by 2 μM GABA after sequential pre-incubation of increasing concentrations of the test article. Pre-incubation duration was 30 s and the duration of the GABA stimulus was 2 s. Test articles were dissolved in DMSO to form stock solutions (10 mM). Test articles were diluted to 0.01, 0.1, 1, and 10 μM in bath solution. All concentrations of test articles were tested on each cell. The relative percentage potentiation was defined as the peak amplitude in response to GABA EC20 in the presence of the test article divided by the peak amplitude in response to GABA EC20 alone, multiplied by 100.

α1β2γ2 GABAA receptor = α1β2γ2 GABAA receptor (Homo sapiens (Human), UniProt P14867+P47870); assay: Patch clamp electrophysiology of recombinant α1β2γ2 GABAA receptors in LTK cells; format: cell-based; details: LTK, 10 μM compound, Qpatch, Ltk cells, GABA EC20 2 μM; read-out: α1β2γ2 GABA Qpatch in Ltk (Efficacy at 10 μm)
Procedure, shortened: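 Whole-cell voltage clamp at −80 mV, room temperature, in LTK cells stably expressing α1β2γ2 or CHO cells transiently expressing α4β3δ, manual or QPatch. Test article (0.01–10 μM, increasing, 30 s preincubation) then 2 μM GABA (EC20) for 2 s; potentiation = peak current with compound relative to GABA alone ×100.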

C[C@@]1(O)CC[C@H]2[C@H](CC[C@@H]3[C@@H]2CC[C@]2(C)[C@@H](C(=O)Cn4nc5cc(F)c(F)cc5n4)CC[C@@H]32)C1 [SA-53] was tested, and the IC50 [1] was 10 to 50 nM.
In the case of COC[C@@]1(O)CC[C@H]2[C@@H](CC[C@@H]3[C@@H]2CC[C@]2(C)[C@@H](C(=O)Cn4nc5ccccc5n4)CC[C@@H]32)C1 [SB-50], the activity at 10 µM (α4β3δ GABAA receptor) is reported as 100 to 500% and the activity at 10 µM (α1β2γ2 GABAA receptor) is reported as 10 to 100%.
Molecule C[C@]12CC[C@H]3[C@@H](CC[C@H]4C[C@@](O)(CF)CC[C@@H]43)[C@@H]1CC[C@@H]2C(=O)Cn1cc2ccc(F)cc2n1 [SG-20] has an activity at 10 µM (α4β3δ GABAA receptor) of 100 to 500% and an activity at 10 µM (α1β2γ2 GABAA receptor) of 100 to 500%.
